Experimental data published in patent US20200148682A1, “AKT ISOZYME-SPECIFIC COVALENT INHIBITORS DERIVED FROM REDOX-SIGNALING LIPIDS” (Cornell University, priority 2017, published 2020).
Entries after “also recorded” stand apart in the source; their conditions may differ.

Legend:
Format in all cases: cell-based
Akt1 = biological target: T1, Akt1 (Homo sapiens, UniProt P31749); assay: In-gel fluorescence assay (Cy5-azide click) of covalent labeling in transfected HEK293T cells; settings: 5 μM, 48 hours
T1 construct: expressed in transfected cells; host or cells: HEK293T
Text: (§1) Overexpressed Akt proteins were labeled with Cy5-small-molecule-fluorophore-conjugated azide (Cy5-azide) using standard click chemistry. FIG. 16A top gel is an image showing Cy5 channel (used to evaluate the extent of covalent binding on each Akt protein). The lysate from non-transfected HEK 293T cells was also used for comparison. M, molecular weight ladder. […] FIG. 16B top gel is an image showing Cy5 channel. M is a molecular weight ladder. FIG. 16B bottom is an image showing western blots probing Halo and actin, respectively. […] Error bars designate s.d. […] Normalized fluorescent signal (NFS) was calculated from the following equation: NFS=[(Cy5(X μM drug)−Cy5(No transfection))/Halo(X μM drug)]÷[(Cy5(no drug)−Cy5(No transfection))/Halo(no drug)]. The relative fluorescent signal (RFS) is calculated from the following equation: RFS=(Cy5(X μM drug)/Halo(X μM drug)) (Cy5(no drug)/Halo(no drug))
(§2) Cell transfection with the designated plasmid encoding a given HaloTag-Akt fusion gene was carried out following the general procedure described in Example 12. After 20-24 hours, the transfection media were aspirated and replaced with fresh 2 mL rinse MEM medium supplemented with 3% FBS containing the indicated concentration of inhibitor or the equivalent final volume of DMSO and the plates were incubated for the indicated period of time. […]

Akt3 C119S mutant = biological target: T2, Akt3 C119S mutant (Homo sapiens, UniProt Q9Y243, C119S); assay: as above; settings: 5 μM, 48 hours
T2 construct: expressed in transfected cells; host or cells: HEK293T
Text: as §1, §2

Halo-Akt3 = biological target: T3, Halo-Akt3 (Homo sapiens, UniProt Q9Y243); assay: as above; settings: 5 μM, 48 hours
T3 construct: expressed in transfected cells; host or cells: HEK293T
Experimental: HEK293T cells were transfected with Halo-Akt3 for 20 hours, then treated with the stated compound (5 μM, 48 hours). After this time, cells were lysed and the labeling was assayed by click chemistry. […] FIGS. 19A, 19C top gels are images showing in gel fluorescence, Cy5 channel. M is a molecular weight ladder. FIG. 19A, 19C lower panels are images of western blots (probing for Halo and actin, respectively) transferred from the same gel as the top image. […] FIGS. 19E-19F are graphs showing quantitation of in-gel Cy5 signal intensity, divided by the western blot signal for Halo.
Cell transfection with the designated plasmid encoding a given HaloTag-Akt fusion gene was carried out following the general procedure described in Example 12. After 20-24 hours, the transfection media were aspirated and replaced with fresh 2 mL rinse MEM medium supplemented with 3% FBS containing the indicated concentration of inhibitor or the equivalent final volume of DMSO and the plates were incubated for the indicated period of time. Cells were then harvested and lysed following the general procedure described in Examples 11 and 13. A portion of the lysate was made up to 25 μL final volume containing, in final concentrations, 5% t-BuOH, [2 mM TCEP, 1% SDS, 1 mM CuSO4, 0.1 mM Cu(TBTA), 10 μM Cy5 azide made up as a 10× stock in water] and 1.0 mg/mL lysate protein. The samples were incubated at 37° C. for 30 min and subsequently quenched with 8 μL of 4×Laemmeli dye containing 6% f ME. After an additional 5-min incubation at 37° C., samples were resolved on a 10% SDS-PAGE gel following the general procedure described in Example 14. After electrophoresis, the gel was rinsed three times with ddH2O and imaged on a Bio-Rad Chemi-doc-MP Imager. Where applicable, the gel was transferred to a PVDF membrane for western blot analysis following the general procedure described in Example 15.

Akt2 (pT309) = biological target: T4, Akt2 (pT309) (Homo sapiens, UniProt P31751); assay: Western blot and ratiometric ELISA of Akt phosphorylation in HEK293T cells; settings: 5 μM, 48 hours
T4 construct: expressed in transfected cells; host or cells: HEK293T

endogenous Akt = assay: Biotin-azide pulldown of endogenous Akt kinases from native HEK293T cells; settings: 5 μM, 12 hours
Experimental: A fraction of each sample was used for the input blot. The remaining cell lysates were labeled with biotin-azide using standard click chemistry followed by streptavidin enrichment.
HEK293T cells were split in 100 cm^2 plates. […] Cells were harvested, washed twice with chilled 1×DPBS and flash frozen. Cell lysis was performed in 200 μL lysis buffer following general procedure described in Example 13, Each lysate was subsequently diluted to 2 mg/mL with lysis buffer and a small fraction of each lysate sample was kept for input gel. The remaining lysates were subjected to click reaction with biotin-azide for 30 min at 37° C. The final concentrations of each component was: 2 mM TCEP, 5% t-BuOH, 1% SDS, 1 mM CuSO4, 0.1 mM Cu(TBTA), 10 μM biotin-azide and 1.2 mg/mL lysate protein. The lysate proteins were precipitated by adding four volumes of ethanol pre-chilled at −20° C. The sample was vortexed and incubated at −80° C. overnight (or at least 4 hours). The precipitant was collected by centrifugation at 20,000×g for 30 min at 4° C. and washed twice with pre-chilled methanol then acetone. The pellet was resuspended in 25 μL 50 mM HEPES (pH 7.6), 8% LDS and 0.5 μM EDTA and dissolved by vortexing and heating at 42° C. for 5 min. […]

[1] = tested on: six other cultured cell lines (breast cancer lines not PTEN-null TNBC, fibroblast lines); assay: Cell viability assay (AlamarBlue), six other cultured cell lines; settings: for toxicity and selectivity across cell lines: 3 days
Experimental: (§3) After this time, cells were lysed and analyzed by antibodies for phosphorylated T305 (pT305) of Akt3, Halo (Akt), and Actin (loading control). […] FIG. 23F is a graph showing proliferation curves. […] After this time, the number of viable cells was calculated using AlamarBlue®. Proliferation curves were fitted to the PI50 equation (EQN. 4). […] FIG. 23H is a graph showing the percentage of viable cells. […] The percentage of growth relative to DMSO-treated cells is shown for the 48 hour point and the 72 hour point. FIG. 23I is a schematic showing the different methods used to derive the data in 23H.
(§4) Indicated cells were plated in a 96-well plate containing the DMEM complete medium (see Example 11 for complete medium formulation, 100 μL per well) with a density of 3,000-5,000 cells per well for 12 hours followed by the addition of varying concentrations of inhibitors in rinse medium (100 μL). The cells were allowed to grow for 72 hours and 100 μL of the culture medium was removed from each well. This was followed by the addition of 10 μL AlamarBlue® reagent to each well. The fluorescence emission signals at 590 nm were read by Cytation 3 cell imaging multi-mode reader (BioTeK) using an excitation wavelength of 560 nm. Curve fitting and data analysis were performed using Prism software.

T47D MK-2206-res = assay: Cell viability assay (AlamarBlue), MK-2206-resistant line; settings: 3 days
Experimental: as §3, §4

BT-549 = assay: Cell viability assay (AlamarBlue); settings: BT-549, 72 hours
Experimental: (§5) FIGS. 22A and 22D are graphs showing results of cytotoxicity assays for MDA-MB-468 (FIG. 22A) and BT-549 (FIG. 22D). […] Stated cell lines were plated in 96-well plates (3000 cells per well) in the presence of the stated concentration of inhibitor. After 72 hours, the number of viable cells was analyzed by AlamarBlue®. Proliferation inhibition 50% (PI50) values were calculated by fitting data to “PI50 equation” (EQN 4) (FIG. 22C). MDA cells were transfected with the stated siRNA using lipofectamine 3000 for 12 hours. […] After 72 hours, the number of viable cells was calculated using AlamarBlue®. FIG. 22F is a schematic showing AlamarBlue® viability assay. […] MDA-MB-468 cells were treated with the stated drugs for 72 hours at the PI60 and PI80. After this time, cells were harvested, fixed/permeabilized with ethanol and DNA content was stained using propidium iodide (visualized in the 488-3 channel). RNA was removed simultaneously using RNAse. After 30 min at room temperature, cells were analyzed by flow cytometry.
as §4

MDA-MB-468 = assay: Cell viability assay (AlamarBlue); settings: MDA-MB-468, 72 hours
Experimental: as §5, §4

T3 sequence (Q9Y243 whole entry): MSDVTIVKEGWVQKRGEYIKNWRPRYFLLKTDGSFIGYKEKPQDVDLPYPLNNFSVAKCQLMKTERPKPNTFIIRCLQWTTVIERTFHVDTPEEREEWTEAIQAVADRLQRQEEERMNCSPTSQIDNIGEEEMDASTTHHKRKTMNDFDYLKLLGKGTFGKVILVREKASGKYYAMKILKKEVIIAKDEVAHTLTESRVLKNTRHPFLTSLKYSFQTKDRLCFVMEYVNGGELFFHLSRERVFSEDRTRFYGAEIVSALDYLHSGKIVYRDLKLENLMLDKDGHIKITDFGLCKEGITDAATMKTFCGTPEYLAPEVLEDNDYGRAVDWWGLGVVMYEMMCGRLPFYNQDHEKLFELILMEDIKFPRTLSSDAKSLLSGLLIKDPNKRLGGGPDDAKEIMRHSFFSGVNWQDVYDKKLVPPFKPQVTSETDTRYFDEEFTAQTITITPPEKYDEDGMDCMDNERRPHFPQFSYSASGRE
T4 sequence (P31751 whole entry): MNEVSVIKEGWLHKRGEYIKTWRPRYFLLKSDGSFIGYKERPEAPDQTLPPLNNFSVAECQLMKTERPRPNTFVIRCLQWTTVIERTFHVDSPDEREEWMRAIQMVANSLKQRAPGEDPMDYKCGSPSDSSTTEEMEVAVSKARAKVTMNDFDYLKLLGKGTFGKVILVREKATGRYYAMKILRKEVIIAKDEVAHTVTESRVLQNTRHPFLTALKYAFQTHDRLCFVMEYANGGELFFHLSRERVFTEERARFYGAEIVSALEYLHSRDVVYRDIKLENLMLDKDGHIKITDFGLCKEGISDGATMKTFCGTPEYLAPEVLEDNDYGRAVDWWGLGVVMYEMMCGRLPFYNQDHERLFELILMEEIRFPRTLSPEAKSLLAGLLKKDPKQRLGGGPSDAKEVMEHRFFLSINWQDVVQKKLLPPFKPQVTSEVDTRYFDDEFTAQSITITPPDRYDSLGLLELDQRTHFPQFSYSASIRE
T1 sequence (P31749 whole entry): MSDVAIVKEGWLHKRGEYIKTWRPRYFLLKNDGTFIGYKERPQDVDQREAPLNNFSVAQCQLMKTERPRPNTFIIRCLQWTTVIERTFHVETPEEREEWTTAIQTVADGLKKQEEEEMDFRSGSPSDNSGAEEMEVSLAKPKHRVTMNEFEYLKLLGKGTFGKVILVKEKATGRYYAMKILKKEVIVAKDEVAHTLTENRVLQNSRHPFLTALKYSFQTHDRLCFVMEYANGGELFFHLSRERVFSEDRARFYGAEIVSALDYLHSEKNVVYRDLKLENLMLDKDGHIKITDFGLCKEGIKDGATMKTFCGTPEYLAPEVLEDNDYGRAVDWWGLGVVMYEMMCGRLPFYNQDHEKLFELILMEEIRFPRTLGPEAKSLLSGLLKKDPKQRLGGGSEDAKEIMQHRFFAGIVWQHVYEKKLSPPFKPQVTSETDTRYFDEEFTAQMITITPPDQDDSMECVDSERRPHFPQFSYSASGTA
T2 sequence (Q9Y243 whole entry C119S): as the sequence (Q9Y243 whole entry) above, with C119S counted along it

covalent inhibition of Akt1 isoform (Akt1)	covalent modification of C119S mutant of Akt3 (Akt3 C119S mutant)	phosphorylation level of Akt2 (Akt2 (pT309))	SMILES	covalent labeling of Halo-Akt3 (Halo-Akt3)	labeling of endogenous Akt (streptavidin enrichment, anti-pan-Akt blot) (endogenous Akt)	toxicity and selectivity across cell lines [1]	resistance of T47D MK-2206-res line (T47D MK-2206-res)	toxicity / potency relative to MK-2206 (BT-549)	toxicity / potency relative to MK-2206 (MDA-MB-468)	PI50(MK-FNE)/PI50(MK-2206) ([1]; all but PTEN-null TNBC lines, except TSE)	PI50(MK-FNE)/PI50(MK-2206) ([1]; some lines)
no covalent inhibition	no covalent modification	did not affect phosphorylation levels	C#CCCCC(O)/C=C/C(=O)NC1(c2ccc(-c3nc4ccn5c(=O)[nH]nc5c4cc3-c3ccccc3)cc2)CCC1.Cl (stereo not shown) [MK-HNE, (E)-8-(4-(1-(4-Hydroxynon-2-en-8-ynamido)cyclobutyl)phenyl)-3-oxo-9-phenyl-2,3-dihydro-[1,2,4]triazolo[3,4-f][1,6]naphthyridin-7-ium Chloride]	labeling was observed; also recorded: able to elicit covalent labeling	enrichment of endogenous Akt protein(s)						
			NC1(c2ccc(-c3nc4ccn5c(=O)[nH]nc5c4cc3-c3ccccc3)cc2)CCC1 [MK-2206]			generally toxic to most lines					
			C#CCCCC(F)/C=C/C(=O)NC1(c2ccc(-c3nc4ccn5c(=O)[nH]nc5c4cc3-c3ccccc3)cc2)CCC1.Cl (stereo not shown) [MK-FNE, (E)-8-(4-(1-(4-Fluoronon-2-en-8-ynamido)cyclobutyl)phenyl)-3-oxo-9-phenyl-2,3-dihydro-[1,2,4]triazolo[3,4-f][1,6]naphthyridin-7-ium Chloride]	able to elicit covalent labeling		significantly selective against PTEN-null TNBC lines	significantly less resistant	similarly potent to MK-2206	similarly potent to MK-2206	greater than 2	above 8
